Measurements taken from patent US10167518B2, “Methods of stratifying patients for treatment with retinoic acid receptor-alpha agonists” (Syros Pharmaceuticals, Inc., priority 2015, dated 2019).

Key:
RAR beta = molecular target: T1, RAR beta (Homo sapiens, UniProt P10826); assay: SelectScreen Nuclear Profiling, agonist specificity for RAR beta; type: cell-based
T1 sequence (P10826 1-455): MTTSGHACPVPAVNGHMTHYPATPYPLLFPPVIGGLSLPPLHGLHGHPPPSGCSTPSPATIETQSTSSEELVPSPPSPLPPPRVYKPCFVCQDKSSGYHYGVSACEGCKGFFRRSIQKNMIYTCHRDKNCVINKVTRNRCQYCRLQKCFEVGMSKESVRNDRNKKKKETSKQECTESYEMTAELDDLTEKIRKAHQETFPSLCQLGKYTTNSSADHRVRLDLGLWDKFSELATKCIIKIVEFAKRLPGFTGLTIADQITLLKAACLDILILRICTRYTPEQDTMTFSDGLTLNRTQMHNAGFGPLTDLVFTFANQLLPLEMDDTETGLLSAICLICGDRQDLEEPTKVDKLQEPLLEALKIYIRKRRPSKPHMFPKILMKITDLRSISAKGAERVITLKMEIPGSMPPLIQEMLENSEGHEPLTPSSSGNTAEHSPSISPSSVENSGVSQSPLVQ
Experimental: (§1) The agonist specificity of the various test compounds for each type of RaR is assessed at Life Technologies using their SelectScreen® Nuclear Profiling Services.

RAR alpha = molecular target: T2, RAR alpha (Homo sapiens, UniProt P10276); assay: SelectScreen Nuclear Profiling, agonist specificity for RAR alpha; type: cell-based; conditions: for EC50 / RAR alpha % max: agonist specificity, SelectScreen; for RAR-a/RAR-g Selectivity % max: ratio of RAR alpha to RAR gamma % max; for RAR-a/RAR-g Selectivity EC50: ratio of RAR gamma to RAR alpha EC50
T2 sequence (P10276 1-462): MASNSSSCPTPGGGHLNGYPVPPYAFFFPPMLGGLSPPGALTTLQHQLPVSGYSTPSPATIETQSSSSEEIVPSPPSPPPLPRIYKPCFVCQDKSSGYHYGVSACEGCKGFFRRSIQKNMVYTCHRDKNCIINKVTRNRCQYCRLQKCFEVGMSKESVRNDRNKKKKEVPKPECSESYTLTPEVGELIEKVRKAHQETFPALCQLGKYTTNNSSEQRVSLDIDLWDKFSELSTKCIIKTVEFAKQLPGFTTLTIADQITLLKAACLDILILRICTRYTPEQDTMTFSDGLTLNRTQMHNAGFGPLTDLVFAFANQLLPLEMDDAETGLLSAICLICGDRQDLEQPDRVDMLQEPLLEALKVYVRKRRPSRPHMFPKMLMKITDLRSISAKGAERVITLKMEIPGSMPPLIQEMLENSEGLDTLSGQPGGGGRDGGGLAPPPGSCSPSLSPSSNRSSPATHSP
Experimental: as §1

RAR gamma = molecular target: T3, RAR gamma (Homo sapiens, UniProt P13631); assay: SelectScreen Nuclear Profiling, agonist specificity for RAR gamma; type: cell-based
T3 sequence (P13631 1-454): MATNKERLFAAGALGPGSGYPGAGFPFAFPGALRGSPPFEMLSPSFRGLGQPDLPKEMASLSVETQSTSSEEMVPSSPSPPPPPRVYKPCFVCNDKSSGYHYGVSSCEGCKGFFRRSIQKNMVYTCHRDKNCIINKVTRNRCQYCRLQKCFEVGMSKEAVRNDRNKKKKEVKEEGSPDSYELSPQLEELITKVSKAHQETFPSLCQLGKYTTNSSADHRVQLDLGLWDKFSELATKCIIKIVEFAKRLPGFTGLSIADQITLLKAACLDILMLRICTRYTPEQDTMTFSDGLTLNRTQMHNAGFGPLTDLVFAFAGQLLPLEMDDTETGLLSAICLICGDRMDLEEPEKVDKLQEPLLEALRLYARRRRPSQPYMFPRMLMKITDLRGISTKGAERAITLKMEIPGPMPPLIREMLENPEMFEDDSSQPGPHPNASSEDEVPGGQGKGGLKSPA
Experimental: as §1

[1] = system: AM5512 AML patient sample-derived xenograft; assay: AML patient sample-derived xenograft AM5512, % human CD45+ cells and survival
Experimental: AM5512 xenograft mice are prepared as described above.

[2] = system: AML cell lines (SigM5, OCI M1, MV411, HEL, Kasumi); assay: Cell viability screening of AML cell lines (ATPlite/CyQuant); type: cell-based
Experimental: (§2) On the day of the experiment, cells are homogenized using Accumax (EMD Millipore), counted, and adjusted to 40,000 cells/ml for breast cancer lines and 60,000 cells/mL for AML in appropriate growth media. Using a Biotek EL406, 50 μl of cells are distributed into white (ATPlite) or black (CyQuant) 384-well plates (Thermo). Cells are returned to 37° C. incubator to allow adhesion. After three hours, compounds are added to plates using a 20 nl 384-well pin transfer manifold on a Janus workstation. Stocks are arrayed in 10 point quadruplicate dose response in DMSO stock in 384-well compound plates. After addition of compound, plates are incubated for five or ten days in a 37° C. incubator.
Cell viability is read out using ATPlite (Perkin Elmer) or CyQuant (Life Technologies). For ATPlite, plates are removed from the incubator and brought to room temperature prior to use. Lyophilized powder of ATPlite reagent is resuspended in lysis buffer and diluted 1:2 with distilled water. 25 μL of this solution is added to each well using the Biotek liquid handler. Plates are incubated for 15 min at room temperature before the luminescence signal was read on an Envision Plate Reader (Perkin Elmer). For CyQuant, reagents are mixed as per manufacturer's instructions in PBS (Gibco). Reagent are added using a multichannel pipet and plates are replaced in incubator for 30 minutes prior to readout on an Envision Plate Reader (Perkin Elmer).
Data acquired as described is stored and grouped in Microsoft's Excel and analyzed using GraphPad Prism Software. […] Edge wells were excluded.

[3] = system: HCC1954 tumor cells xenograft; assay: HCC1954 breast cancer cell line-derived xenograft, tumor volume; type: in vivo, mice
Experimental: Breast cancer cell line (HCC1954)-derived xenograft models in BALB/c nude immunocompromised mice are prepared by Crown Biosciences (Beijing, China) essentially as follows.
Six to eight week old BALB/c nude immunocompromised mice, weighing between 18-20 g are inoculated subcutaneously at the right flank region with HCC1954 tumor cells (5×10^6) in 0.1 ml of PBS (1:1 matrigel) for tumor development. […] The final dosage in mice is 6 mg per kg per day in the high dose arm (n=10) and 3 mg per kg per day in the low dose arm (n=10) in a 10 ml/kg volume. […] Tumor volume is measured twice weekly by caliper measurement.

[4] = system: AM7440 AML patient sample-derived xenograft; assay: AML patient sample-derived xenograft AM7440, % human CD45+ cells; type: in vivo, mice; conditions: 6 mg per kg daily oral
Experimental: (§3) Different AML patient sample (AM8096, AM5512, AM7577 and AM7440)-derived xenograft models in BALB/c nude immunocompromised mice are prepared by Crown Biosciences (Beijing, China) essentially as follows.
(§4) Approximately 2×10^6 cells from each patient sample are suspended in 100 μL PBS and injected into separate mice (n=3 for each different patient sample and for the control) by IV tail injection. For AM5512, AM7577 and AM7440 xenografts, tumor burden is considered high enough to start treatment when the concentration of human CD45^+ cells reaches ˜1-5% in the animal's peripheral blood. Human CD45^+ cells are detected in mouse blood (obtained via eye bleeds) using a fluorescence activated cell sorter and FITC anti-human CD45 (Biolegend, Cat#304037). For AM8096 xenografts, treatment is begun 40 days after injection of cells.
(§5) Human CD45^+ cell levels in peripheral blood from the treated animals and control animals are measured once a week.

[5] = system: breast cancer cell lines (SKBR3, Au565, ZR75, Hcc1143); assay: Cell viability screening of breast cancer cell lines (ATPlite/CyQuant); type: cell-based; conditions: four breast cancer cell lines, 5 days of treatment, FIG. 7
Experimental: All cell lines are obtained from ATCC and cultured at 37° C. in 5% CO2. All are grown in RPMI1640 supplemented with 10 mM HEPES buffer, 2 mM L-glutamine, 50 U/mL penicillin, 50 […] and 10% fetal bovine serum (FBS, all from Invitrogen). Cells lines included AU565, SKBR3, T47D, HCC1143, MCF7, ZR-75-1, and HCC1569.
as §2, with “Stocks are arrayed in 10 point quadruplicate dose response in DMSO stock in 384-well compound plates. After addition of compound, plates are incubated for five or ten days in a 37° C. incubator.” left out
Cell viability is read out using ATPlite (Perkin Elmer) or CyQuant (Life Technologies). […] Plates are incubated for 15 min at room temperature before the luminescence signal was read on an Envision Plate Reader (Perkin Elmer). […] Reagent are added using a multichannel pipet and plates are replaced in incubator for 30 minutes prior to readout on an Envision Plate Reader (Perkin Elmer).
Data acquired as described is stored and grouped in Microsoft's Excel and analyzed using GraphPad Prism Software. […]

[6] = system: AM8096 AML patient sample-derived xenograft; assay: AML patient sample-derived xenograft AM8096, % human CD45+ cells; type: in vivo, mice; conditions: 6 mg per kg daily oral, after 35 days
Experimental: as §3, §4, §5

[7] = system: AM7577 AML patient sample-derived xenograft; assay: AML patient sample-derived xenograft AM7577, % human CD45+ cells; type: in vivo, mice; conditions: 6 mg per kg daily oral
Experimental: as §3, §4, §5

EC50 (RAR beta) [nM] | RAR beta % max (RAR beta) [%] | EC50 (RAR alpha) [nM] | RAR alpha % max (RAR alpha) [%] | EC50 (RAR gamma) [nM] | RAR gamma % max (RAR gamma) [%] | Structure (SMILES) | also measured
5.17 | 71.88 | 0.353 | 121.4 | 1.1 | 78.33 | CC1(C)CCSc2ccc(C#Cc3ccc(C(=O)O)cn3)cc21 [Tazarotenic, Tazarotenic acid] | RAR-a/RAR-g Selectivity % max (RAR alpha): 1.5499; RAR-a/RAR-g Selectivity EC50 (RAR alpha): 3.1172
9.73 | 69.36 | 5.01 | 102.2 | – | 87.7 | COc1ccc(-c2ccc3cc(C(=O)O)ccc3c2)cc1C12CC3CC(CC(C3)C1)C2 [Adapalene] | –
– | 0 | 27.4 | −3.417 | 512 | −13.41 | CC1(C)CC=C(C#Cc2ccccc2)c2cc(/C=C/c3ccc(C(=O)O)cc3)ccc21 [BMS493] | –
701 | 6 | 1.43 | 122.2 | 136 | 19.83 | CC1(C)C(=O)C(C)(C)c2cc(C(=O)Nc3ccc(C(=O)O)cc3)ccc21 [BMS753] | specificity for RARA over RaR-γ (RAR alpha; comparison among tested compounds): greatest specificity for RARA over RaR-γ; RAR-a/RAR-g Selectivity % max (RAR alpha): 6.1624; RAR-a/RAR-g Selectivity EC50 (RAR alpha): 94.8396
– | 78.24 | – | – | – | 87.06 | CC1(C)CCC(C)(C)c2cc(C(=O)Nc3ccc(C(=O)O)cc3)ccc21 [AM580] | –

Structure (SMILES) | EC50 (RAR beta) [nM] | RAR beta % max (RAR beta) [%] | EC50 (RAR alpha) [nM] | RAR alpha % max (RAR alpha) [%] | EC50 (RAR gamma) [nM] | RAR gamma % max (RAR gamma) [%] | also measured
CC1(C)CCC(C)(C)c2cc(NC(=O)c3ccc(C(=O)O)cc3)ccc21 [tamibarotene] | – | 114.9 | – | – | – | 106.1 | % CD45+ cells vs vehicle control and ATRA-treated animals ([1]; 3 mg/kg BID, after 28 days): significant reduction; animals surviving the course of the experiment ([1]; 3 mg/kg BID, n=7): 5 of the 7; total % of CD45+ cells and % in blood, bone marrow and spleen vs vehicle ([1]; 6 mg per kg daily oral, after 35 days): significant reduction; responsiveness of cell line ([2]; HEL cells): non-responsive; responsiveness of cell line ([2]; MV411 cells): tamibarotene-responsive; sensitivity order of AML cell lines (viability) ([2]; SigM5, MV411, HEL, Kasumi, FIGS. 23A-B): SigM5>MV411>HEL=Kasumi; sensitivity order of AML cell lines (viability) ([2]; three AML cell lines, 5 days of treatment, FIG. 9): SigM5>OCI M1>HEL; tumor volume ([3]; 3 and 6 mg per kg per day, QD PO, up to 21 days): reduces tumor volume in this model in a dose-dependent manner; reduction in tumor volume, p (t-test, Welch's correction) ([3]; high dose arm, 6 mg per kg per day QD PO): 0.0048; reduction in tumor volume, p (t-test, Welch's correction) ([3]; low dose arm, 3 mg per kg per day QD PO): 0.0552; tumor volume (overall, blood, bone marrow, spleen) vs vehicle [4]: no significant reduction; sensitivity order of breast cancer cell lines (viability) [5]: SKBR3>Au565>ZR75>Hcc1143; total % of CD45+ cells and % in blood, bone marrow and spleen vs vehicle [6]: significant reduction; % human CD45+ cells (overall, blood, bone marrow, spleen) vs vehicle [7]: no significant reduction
CC1=C(/C=C/C(C)=C/C=C/C(C)=C/C(=O)O)C(C)(C)CCC1 [Tretinoin, all-trans retinoic acid] | – | 92.77 | – | 149.4 | – | 99.37 | % CD45+ cells vs vehicle control ([1]; 4 mg/kg BID, after 14 days): reduction in % CD45^+ cells; survival ([1]; 4 mg/kg BID, n=7): none of those mice survived past day 21
CC1(C)CC=C(c2cnc3ccccc3c2)c2cc(C(=O)Nc3ccc(C(=O)O)cc3)ccc21 [BMS195614] | – | 0 | 1340 | −31.01 | 434 | −14.57 | –
